The values below come from ChEMBL document CHEMBL1138422, “Anti-influenza virus activity of biflavonoids” (Bioorg Med Chem Lett, 2007).

Data set [1] is described as follows: Inhibition of influenza A/PR/8/34(H1N1) virus sialidase after 10 mins by fluorometric assay. Further details: species or system Influenza A virus (A/Puerto Rico/8/1934(H1N1)).
A short description of data set [2]: Inhibition of influenza A/Guizhou/54/89(H3N2) virus sialidase after 10 mins by fluorometric assay. Further details: species or system Influenza A virus (A/Guizhou/54/89(H3N2)).
In data set [3] the test system is MDCK. Briefly: Cytotoxicity in influenza A/PR/8/34 virus infected MDCK cells after 3 days by MTT assay. The note with it: dog, 72 h. The format is cell-based, Canis lupus familiaris. Background: Tetrazolium dyes change colour on reduction, which living cells bring about.
Data set [4] is described as follows: Inhibition of influenza B/Ibaraki/2/85 virus sialidase after 10 mins by fluorometric assay. Further details: species or system Influenza B virus (B/Ibaraki/2/85).
In data set [5] the test system is Influenza A virus. Briefly: Antiinfluenza virus activity in mouse infected with influenza virus A/PR/8/34(H1N1) assessed as survival rate at 0.5 mg/kg administered intranasally after 10 days. It is filed as functional, A/Puerto Rico/8/1934(H1N1).
The test system of data set [6] is Influenza A virus (A/Puerto Rico/8/1934(H1N1)). Briefly: Antiinfluenza virus activity in mouse infected with influenza virus A/PR/8/34(H1N1) assessed as survival rate at 0.5 mg/kg administered intranasally after 21 days. It is filed as functional, BALB/c.
Data set [7] concerns Influenza A virus. Briefly: Inhibition of influenza virus A/PR/8/34(H1N1) proliferation on MDCK cells at 12.5 ug/mL. The format is functional, organism-based. To be noted: A/Puerto Rico/8/1934(H1N1).

Molecules are shown by their SMILES. ≈ marks a conversion by molar mass, not a printed value. Calls of active or inactive are those of the source. The rule behind the calls is not given here. Bounds are passed on as bounds.

In the case of `COC(=O)[C@@]1(Oc2cc(O)c3c(=O)cc(-c4ccc(O)cc4)oc3c2-c2cc(-c3cc(=O)c4c(O)cc(OC)cc4o3)ccc2OC)C[C@H](OC(C)=O)[C@@H](NC(C)=O)[C@H]([C@H](OC(C)=O)[C@@H](COC(C)=O)OC(C)=O)O1` (stereo in doubt; 6R), the half-maximal inhibitory concentration (IC50) is 79.2 µg/mL (≈ 76.2 µM) in data set [1] and greater than 10 µg/mL in data set [2]. For the same molecule, in data set [3], the Activity entry is “Non-toxic”.
For `COC(=O)[C@@]1(Oc2cc(O)c3c(=O)cc(-c4ccc(O)cc4)oc3c2-c2cc(-c3cc(=O)c4c(O)cc(OC)cc4o3)ccc2OC)C[C@H](OC(C)=O)[C@@H](NC(C)=O)[C@H]([C@H](OC(C)=O)[C@@H](COC(C)=O)OC(C)=O)O1` (stereo in doubt; 6S), the figures for the IC50 in data set [1], in data set [2] and in data set [4] were greater than 100 µg/mL, 1.1 µg/mL (≈ 1.06 µM) and greater than 100 µg/mL, respectively.
In data set [2], `COC(=O)[C@@]1(Oc2ccc(-c3cc(=O)c4c(O)cc(O[C@]5(C(=O)OC)C[C@H](OC(C)=O)[C@@H](NC(C)=O)[C@H]([C@H](OC(C)=O)[C@@H](COC(C)=O)OC(C)=O)O5)c(-c5cc(-c6cc(=O)c7c(O)cc(OC)cc7o6)ccc5OC)c4o3)cc2)C[C@H](OC(C)=O)[C@@H](NC(C)=O)[C@H]([C@H](OC(C)=O)[C@@H](COC(C)=O)OC(C)=O)O1` (stereo in doubt; 7R) displayed a half-maximal inhibitory concentration (IC50) of 1.35 µg/mL (≈ 0.892 µM).
As for `COC(=O)[C@@]1(Oc2ccc(-c3cc(=O)c4c(O)cc(O[C@]5(C(=O)OC)C[C@H](OC(C)=O)[C@@H](NC(C)=O)[C@H]([C@H](OC(C)=O)[C@@H](COC(C)=O)OC(C)=O)O5)c(-c5cc(-c6cc(=O)c7c(O)cc(OC)cc7o6)ccc5OC)c4o3)cc2)C[C@H](OC(C)=O)[C@@H](NC(C)=O)[C@H]([C@H](OC(C)=O)[C@@H](COC(C)=O)OC(C)=O)O1` (stereo in doubt; 7S), the values for the IC50 in data set [1], in data set [2] and in data set [4] were greater than 100 µg/mL, greater than 10 µg/mL and greater than 100 µg/mL, respectively. Also, the Activity entry in data set [3] is given as “Non-toxic”.
With `COc1cc(O)c2c(=O)cc(-c3ccc(OC)c(-c4c(O[C@]5(C(=O)O)C[C@H](O)[C@@H](NC(C)=O)[C@H]([C@H](O)[C@H](O)CO)O5)cc(O)c5c(=O)cc(-c6ccc(O)cc6)oc45)c3)oc2c1` (stereo in doubt; 8R) [listing 1 of 2 here], the half-maximal inhibitory concentration (IC50) in data set [1] is 5.5 µg/mL (≈ 6.41 µM); in data set [2] it was 0.82 µg/mL (≈ 0.956 µM); in data set [4], 9.11 µg/mL (≈ 10.6 µM). Besides, the Activity in data set [5] is on record as 75%; in data set [6], 62.5%.
Consider `COc1cc(O)c2c(=O)cc(-c3ccc(OC)c(-c4c(O[C@]5(C(=O)O)C[C@H](O)[C@@H](NC(C)=O)[C@H]([C@H](O)[C@H](O)CO)O5)cc(O)c5c(=O)cc(-c6ccc(O)cc6)oc45)c3)oc2c1` (stereo in doubt; 8R) [listing 2 of 2 here], for which the result in data set [7] was Active.
`COc1cc(O)c2c(=O)cc(-c3ccc(OC)c(-c4c(O[C@]5(C(=O)O)C[C@H](O)[C@@H](NC(C)=O)[C@H]([C@H](O)[C@H](O)CO)O5)cc(O)c5c(=O)cc(-c6ccc(O)cc6)oc45)c3)oc2c1` (stereo in doubt; 8S) [listing 1 of 2 here]: the IC50 in data set [1] came out at 6.35 µg/mL (≈ 7.4 µM); in data set [2], 0.99 µg/mL (≈ 1.15 µM); in data set [4] it was 8.64 µg/mL (≈ 10.1 µM). Moreover, the Activity entry is reported as “Non-toxic” in data set [3], 78% in data set [5] and 56% in data set [6].
In the case of `COc1cc(O)c2c(=O)cc(-c3ccc(OC)c(-c4c(O[C@]5(C(=O)O)C[C@H](O)[C@@H](NC(C)=O)[C@H]([C@H](O)[C@H](O)CO)O5)cc(O)c5c(=O)cc(-c6ccc(O)cc6)oc45)c3)oc2c1` (stereo in doubt; 8S) [listing 2 of 2 here], the outcome in data set [7] was Active.
Turning to `COc1cc(O)c2c(=O)cc(-c3ccc(OC)c(-c4c(O[C@]5(C(=O)O)C[C@H](O)[C@@H](NC(C)=O)[C@H]([C@H](O)[C@H](O)CO)O5)cc(O)c5c(=O)cc(-c6ccc(O[C@]7(C(=O)O)C[C@H](O)[C@@H](NC(C)=O)[C@H]([C@H](O)[C@H](O)CO)O7)cc6)oc45)c3)oc2c1` (stereo in doubt; 9R), the values for the IC50 in data set [1], in data set [2] and in data set [4] were 6.61 µg/mL (≈ 5.75 µM), 6.57 µg/mL (≈ 5.72 µM) and 9.05 µg/mL (≈ 7.88 µM), respectively.
For `COc1cc(O)c2c(=O)cc(-c3ccc(OC)c(-c4c(O[C@]5(C(=O)O)C[C@H](O)[C@@H](NC(C)=O)[C@H]([C@H](O)[C@H](O)CO)O5)cc(O)c5c(=O)cc(-c6ccc(O[C@]7(C(=O)O)C[C@H](O)[C@@H](NC(C)=O)[C@H]([C@H](O)[C@H](O)CO)O7)cc6)oc45)c3)oc2c1` (stereo in doubt; 9S), the results for the IC50 in data set [1], in data set [2] and in data set [4] were 6.99 µg/mL (≈ 6.08 µM), 0.94 µg/mL (≈ 0.818 µM) and 9.34 µg/mL (≈ 8.13 µM), respectively. Besides, the Activity result in data set [3] is “Non-toxic”.
Take `COc1c(O)cc(O)c2c(=O)cc(-c3ccc(O)cc3)oc12` [4'-HYDROXYWOGONIN]: the IC50 in data set [1] was 9.78 µg/mL (≈ 32.6 µM); in data set [2], 8.95 µg/mL (≈ 29.8 µM); in data set [4] it was 6.58 µg/mL (≈ 21.9 µM).
`COc1cc(O)c2c(=O)cc(-c3ccc(OC)c(-c4c(O)cc(O)c5c(=O)cc(-c6ccc(O)cc6)oc45)c3)oc2c1` [GINKGETIN]: the IC50 is 55 µg/mL (≈ 97.1 µM) in data set [1], 9.78 µg/mL (≈ 17.3 µM) in data set [2] and greater than 100 µg/mL in data set [4]. For the same molecule, the Activity result in data set [3] was “Toxic”.

What is called IC50 is the concentration that gives 50% inhibition. A low value points to greater potency in that assay.
